Here are results for 32 molecules from patent publication US8273769B2, “Phenoxy acetic acid derivatives” (Merck Serono SA, priority 2009, dated 2012).

Broadly, the IC50 is the concentration that gives 50% inhibition. The low end stands for greater potency in that assay, the high end for weaker potency in that assay.

This assay concerns the target T1, CRTH2 (Homo sapiens, UniProt Q9Y5Y4).
T1 sequence (Q9Y5Y4 1-395): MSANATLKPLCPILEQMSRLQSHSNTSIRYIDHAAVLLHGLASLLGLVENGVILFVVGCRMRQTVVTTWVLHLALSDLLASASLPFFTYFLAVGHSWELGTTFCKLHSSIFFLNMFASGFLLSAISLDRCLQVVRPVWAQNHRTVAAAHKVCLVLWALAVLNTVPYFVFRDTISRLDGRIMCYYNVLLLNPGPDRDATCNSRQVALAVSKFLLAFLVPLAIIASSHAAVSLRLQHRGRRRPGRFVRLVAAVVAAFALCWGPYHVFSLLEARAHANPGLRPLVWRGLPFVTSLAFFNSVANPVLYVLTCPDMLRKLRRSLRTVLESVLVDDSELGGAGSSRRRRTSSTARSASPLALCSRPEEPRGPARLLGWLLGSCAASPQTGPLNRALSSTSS
Kind of assay: Radioligand binding Scintillation Proximity Assay ([3H]PGD2, hCRTH2-CHO cell membranes). Conditions: 1.5 nM [3H]PGD2, hCRTH2-CHO cell membranes, SPA. Details: host or cells: CHO cells. An outline of the steps:
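SPA competition binding at room temperature, 90 min with agitation: 1.5 nM [3H]PGD2, 10-50 μg/ml hCRTH2-CHO membrane protein, WGA SPA beads, HEPES pH 7.4 with 10 mM MnCl2, 1% DMSO. Non-specific binding defined with 10 μM PGD2; scintillation counting.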
A general note: Scintillation proximity formats need no separation of bound from free tracer.
Regarding `CN(C)S(=O)(=O)c1cccc(C#Cc2cc(Cl)ccc2OCC(=O)O)c1` [Example 80, [4-chloro-2-({3-[(dimethylamino)sulfonyl]phenyl}ethynyl)phenoxy]acetic acid], the IC50 worked out at 19 nM.
Then `Cc1ccc(S(=O)(=O)N2CCCCC2C)cc1C#Cc1cc(Cl)ccc1OCC(=O)O` (centres unmarked) [Example 108, [4-chloro-2-({2-methyl-5-[(2-methylpiperidin-1-yl)sulfonyl]phenyl}ethynyl)-phenoxy]acetic acid], with 2 nM.
The figure for `N#Cc1ccc(OCC(=O)O)c(C#Cc2cncc(S(=O)(=O)N3CCOCC3)c2)c1` [Example 77, (4-cyano-2-{[5-(morpholin-4-ylsulfonyl)pyridin-3-yl]ethynyl}phenoxy)acetic acid] is 360 nM.
Then `Cc1ccc(S(N)(=O)=O)cc1C#Cc1cc(Cl)ccc1OCC(=O)O` [Example 120, (2-{[5-(aminosulfonyl)-2-methylphenyl]ethynyl}-4-chlorophenoxy)acetic acid], with 25 nM; and `Cc1ncccc1C#Cc1cc(Cl)ccc1OCC(=O)O` [Example 22, {4-chloro-2-[(2-methylpyridin-3-yl)ethynyl]phenoxy}acetic acid], with 175 nM; and `O=C(O)COc1ccc(Cl)cc1C#Cc1cccc(C(=O)N2CCOCC2)c1` [Example 126, (4-chloro-2-{[3-(morpholin-4-ylcarbonyl)phenyl]ethynyl}phenoxy)acetic acid], with 60 nM.
In the case of `Cc1ccc(S(=O)(=O)CCCO)cc1C#Cc1cc(C#N)ccc1OCC(=O)O` [Example 73, [4-cyano-2-({5-[(3-hydroxypropyl)sulfonyl]-2-methylphenyl}ethynyl)phenoxy]acetic acid], the IC50 worked out at 57 nM.
The figure for `CCCS(=O)(=O)c1ccc(C)c(C#Cc2cc(Cl)ccc2OC(CC)C(=O)O)c1` (centres unmarked) [Example 170, 2-(4-chloro-2-{[2-methyl-5-(propylsulfonyl)phenyl]ethynyl}phenoxy)butanoic acid] is 35 nM; for `O=C(O)COc1ccc(Cl)cc1C#Cc1ccc(NC(=O)c2ccccc2)cc1` [Example 151, (2-{[4-(benzoylamino)phenyl]ethynyl}-4-chlorophenoxy)acetic acid] it is 28 nM.
`Cc1ccc(S(=O)(=O)N(C)CCN(C)C)cc1C#Cc1cc(Cl)ccc1OCC(=O)O` [Example 122, {4-chloro-2-[(5-{[[2-(dimethylamino)ethyl](methyl)amino]sulfonyl}-2-methylphenyl)ethynyl]phenoxy}acetic acid] registered an IC50 of 452 nM.
Then `Cc1ccc(S(=O)(=O)NCC(C)(C)C)cc1C#Cc1cc(Cl)ccc1OCC(=O)O` [Example 113, {4-chloro-2-[(5-{[(2,2-dimethylpropyl)amino]sulfonyl}-2-methylphenyl)ethynyl]phenoxy}acetic acid], with 2 nM.
Then `N#Cc1ccc(OCC(=O)O)c(C#Cc2cncc(S(=O)(=O)NCCO)c2)c1` [Example 75, {4-cyano-2-[(5-{[(2-hydroxyethyl)amino]sulfonyl}pyridin-3-yl)ethynyl]phenoxy}acetic acid], with 372 nM; and `Cc1nc(C)c(C#Cc2cc(Cl)ccc2OCC(=O)O)s1` [Example 24, {4-chloro-2-[(2,4-dimethyl-1,3-thiazol-5-yl)ethynyl]phenoxy}acetic acid], with 102 nM.
The figure for `O=C(O)COc1ccc(Cl)cc1C#Cc1ccncc1` [Example 12, [4-chloro-2-(pyridin-4-ylethynyl)phenoxy]acetic acid] is 811 nM.
The molecule `Cc1ccc(S(=O)(=O)CCc2ccccc2)cc1C#Cc1cc(C#N)ccc1OCC(=O)O` [Example 96, [4-cyano-2-({2-methyl-5-[(2-phenylethyl)sulfonyl]phenyl}ethynyl)phenoxy]acetic acid] returned a half-inhibitory concentration (IC50) of 7 nM.
Take `CCCS(=O)(=O)c1cccc(C#Cc2cc(-c3ccsc3)ccc2OCC(=O)O)c1` [Example 133, [2-{[3-(propylsulfonyl)phenyl]ethynyl}-4-(3-thienyl)phenoxy]acetic acid]: the IC50 was 23 nM.
`CS(=O)(=O)c1cc(C#Cc2cc(Cl)ccc2OCC(=O)O)ccc1-c1cccc(Cl)c1` [Example 145, (4-chloro-2-{[3′-chloro-2-(methylsulfonyl)biphenyl-4-yl]ethynyl}phenoxy)acetic acid] came in with an IC50 of 19 nM.
Take `O=C(O)COc1ccc(Cl)cc1C#Cc1cncc(S(=O)(=O)NCCO)c1` [Example 46, {4-chloro-2-[(5-{[(2-hydroxyethyl)amino]sulfonyl}pyridin-3-yl)ethynyl]phenoxy}acetic acid]: the IC50 turned out to be 323 nM.
The figure for `CC(C)(C)N1C(=O)c2ccc(C#Cc3cc(Cl)ccc3OCC(=O)O)cc2S1(=O)=O` [Example 157, {2-[(2-tert-butyl-1,1-dioxido-3-oxo-2,3-dihydro-1,2-benzisothiazol-6-yl)ethynyl]-4-chlorophenoxy}acetic acid] is 17 nM.
Then `Cc1cc(F)c(S(C)(=O)=O)cc1C#Cc1cc(Cl)ccc1OCC(=O)O` [Example 97, (4-chloro-2-{[4-fluoro-2-methyl-5-(methylsulfonyl)phenyl]ethynyl}phenoxy)acetic acid], with 8 nM; and `Cc1ccc(S(=O)(=O)CCc2ccccc2)cc1C#Cc1cc(Cl)ccc1OCC(=O)O` [Example 92, [4-chloro-2-({2-methyl-5-[(2-phenylethyl)sulfonyl]phenyl}ethynyl)phenoxy]acetic acid], with 9 nM; and `CC1(O)c2ccc(C#Cc3cc(Cl)ccc3OCC(=O)O)cc2S(=O)(=O)C1(C)C` (centres unmarked) [Example 160, {4-chloro-2-[(3-hydroxy-2,2,3-trimethyl-1,1-dioxido-2,3-dihydro-1-benzothien-6-yl)ethynyl]phenoxy}acetic acid], with 32 nM.
The figure for `CC1(C)C(O)c2ccc(C#Cc3cc(Cl)ccc3OCC(=O)O)cc2S1(=O)=O` (centres unmarked) [Example 159, {4-chloro-2-[(3-hydroxy-2,2-dimethyl-1,1-dioxido-2,3-dihydro-1-benzothien-6-yl)ethynyl]phenoxy}acetic acid] is 37 nM.
As for `Cc1ccc(S(=O)(=O)Cc2ccccc2)cc1C#Cc1cc(Cl)ccc1OCC(=O)O` [Example 91, (2-{[5-(benzylsulfonyl)-2-methylphenyl]ethynyl}-4-chlorophenoxy)acetic acid], the IC50 is 7 nM.
The figure for `O=C(O)COc1ccc(Cl)cc1C#Cc1ccc2c(c1)S(=O)(=O)CC2` [Example 155, {4-chloro-2-[(1,1-dioxido-2,3-dihydro-1-benzothien-6-yl)ethynyl]phenoxy}acetic acid] is 29 nM; for `CCCS(=O)(=O)c1ccc(F)c(C#Cc2cc(Cl)ccc2OC(C)(C)C(=O)O)c1` [Example 169, 2-(4-chloro-2-{[2-fluoro-5-(propylsulfonyl)phenyl]ethynyl}phenoxy)-2-methylpropanoic acid] it is 287 nM; for `Cc1ccc(OCC(=O)O)c(C#Cc2ccccc2Cl)c1` [Example 27, {2-[(2-chlorophenyl)ethynyl]-4-methylphenoxy}acetic acid] it is 346 nM.
Then `Cc1ccc(S(=O)(=O)N(C)CC(C)C)cc1C#Cc1cc(Cl)ccc1OCC(=O)O` [Example 110, {4-chloro-2-[(5-{[isobutyl(methyl)amino]sulfonyl}-2-methylphenyl)ethynyl]phenoxy}acetic acid], with 5 nM; and `O=C(O)COc1ccc(Cl)cc1C#Cc1ccccn1` [Example 13, [4-chloro-2-(pyridin-2-ylethynyl)phenoxy]acetic acid], with 1440 nM; and `O=C(O)COc1ccc(C(F)(F)F)cc1C#Cc1ccccc1Cl` [Example 41, [2-[(2-chlorophenyl)ethynyl]-4-(trifluoromethyl)phenoxy]acetic acid], with 15 nM.
Then `Cc1ccc(N(C)S(C)(=O)=O)cc1C#Cc1cc(Cl)ccc1OCC(=O)O` [Example 138, [4-chloro-2-({2-methyl-5-[methyl(methylsulfonyl)amino]phenyl}ethynyl)phenoxy]acetic acid], with 150 nM.
Regarding `O=C(O)COc1ccc2ccccc2c1C#Cc1cccc(O)c1` [Example 147, ({1-[(3-hydroxyphenyl)ethynyl]-2-naphthyl}oxy)acetic acid], the IC50 was 102 nM.
